Data set [1] has as its system opioid receptors. Conditions: guinea pig ileum, compared with morphine; cited from earlier work.
In data set [2] the test system is mice. Conditions: cited from earlier work.
Data set [3] concerns morphine withdrawal symptoms. Description: naloxone-precipitated morphine withdrawal symptoms after replacement with compound. In kind it is in vivo, mice. As to conditions: for Jumping Frequency / Last Day % Weight Control / Locomotor Activity / Paw Tremor Frequency / Teeth Chattering Frequency / Wet Dog Shakes Frequency: + 10 mg/kg naloxone i.p. As for the experimental part:
(§1) In this experiment mice were chronically administered either morphine using an increasing dose paradigm starting at 20 mg/kg and ending at 100 mg/kg (i.p.) or a saline vehicle control for six days. […] Morphine withdrawal symptoms were initiated by the injection of naloxone (10 mg/kg; i.p.). Kratom extract and mitragyine reduced naloxone-precipitated morphine withdrawal symptoms in a similar manner as methadone.

The test system of data set [4] is withdrawal symptoms. Description: compound followed by naloxone administration (control values). Format: in vivo, mice. The procedure:
as §1

The target of data set [5] is T1, Adenosine A2A (Homo sapiens, UniProt P29274).
T1 construct: Novascreen Biosciences Corp
T1 sequence (P29274 whole entry): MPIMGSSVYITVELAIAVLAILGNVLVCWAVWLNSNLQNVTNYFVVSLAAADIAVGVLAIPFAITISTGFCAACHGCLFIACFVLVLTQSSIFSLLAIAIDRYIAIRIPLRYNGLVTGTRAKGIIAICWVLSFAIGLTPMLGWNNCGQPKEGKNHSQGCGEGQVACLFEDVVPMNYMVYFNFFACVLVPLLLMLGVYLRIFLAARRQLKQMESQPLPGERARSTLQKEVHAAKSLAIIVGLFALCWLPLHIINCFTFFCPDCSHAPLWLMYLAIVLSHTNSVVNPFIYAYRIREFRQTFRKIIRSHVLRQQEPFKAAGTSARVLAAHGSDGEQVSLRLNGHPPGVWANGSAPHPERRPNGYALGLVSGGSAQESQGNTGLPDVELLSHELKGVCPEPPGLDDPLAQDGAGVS
Description: high throughput radioligand binding screen, Adenosine A2A.

The subject of data set [6] is Adrenergic (Alpha 2). Description: high throughput radioligand binding screen, Adrenergic (Alpha 2).
In data set [7] the target is T2, Dopamine D2 (Homo sapiens, UniProt P14416).
T2 construct: Novascreen Biosciences Corp
T2 sequence (P14416 whole entry): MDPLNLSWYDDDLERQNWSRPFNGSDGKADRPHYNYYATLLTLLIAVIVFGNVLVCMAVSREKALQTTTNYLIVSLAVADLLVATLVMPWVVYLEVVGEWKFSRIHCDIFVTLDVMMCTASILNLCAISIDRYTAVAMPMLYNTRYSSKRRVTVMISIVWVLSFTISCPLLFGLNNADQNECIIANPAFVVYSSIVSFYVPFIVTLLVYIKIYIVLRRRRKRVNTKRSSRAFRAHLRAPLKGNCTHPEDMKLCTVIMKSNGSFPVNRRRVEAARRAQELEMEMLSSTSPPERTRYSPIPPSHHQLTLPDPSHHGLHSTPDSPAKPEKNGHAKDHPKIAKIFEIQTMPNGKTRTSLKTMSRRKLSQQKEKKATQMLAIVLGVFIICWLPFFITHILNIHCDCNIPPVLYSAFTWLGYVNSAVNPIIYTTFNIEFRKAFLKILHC
Description: high throughput radioligand binding screen, Dopamine D2.

Data set [8] deals with T3, Serotonin, 5HT2C (Homo sapiens, UniProt P28335).
T3 construct: Novascreen Biosciences Corp
T3 sequence (P28335 33-458): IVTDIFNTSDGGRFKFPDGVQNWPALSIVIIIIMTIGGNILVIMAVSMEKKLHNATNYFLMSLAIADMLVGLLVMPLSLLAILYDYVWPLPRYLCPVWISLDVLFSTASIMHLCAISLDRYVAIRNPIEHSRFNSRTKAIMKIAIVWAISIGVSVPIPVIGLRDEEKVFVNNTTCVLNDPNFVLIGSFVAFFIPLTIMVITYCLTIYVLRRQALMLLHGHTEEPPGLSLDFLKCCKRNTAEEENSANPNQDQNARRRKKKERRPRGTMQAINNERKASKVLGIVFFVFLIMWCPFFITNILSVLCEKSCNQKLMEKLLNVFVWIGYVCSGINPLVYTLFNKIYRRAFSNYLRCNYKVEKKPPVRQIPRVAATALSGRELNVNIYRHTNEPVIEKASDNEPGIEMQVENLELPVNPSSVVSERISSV
Description: high throughput radioligand binding screen, Serotonin 5HT2C.

Data set [9] has as its target T4, Serotonin, 5HT7 (Homo sapiens, UniProt P34969).
T4 construct: Novascreen Biosciences Corp
Description: high throughput radioligand binding screen, Serotonin 5HT7.

Data set [10] can be described thus: mitragynine sample stability in validation of the detection method. Conditions: short-term (4 h at room temperature), freeze-thaw (3 cycles), post-processing (16 h at 12° C.); any concentration tested. From the text: The coefficient of variation and relative error values at the three concentrations were obtained in the intra- and inter-day assays. See, FIG. 3.

The target of data set [11] is T5, delta-opioid receptor (Cavia porcellus, UniProt A0A286XTF2).
T5 construct: determined using guinea pig brain membranes; from tissue; host or cells: guinea pig brain membranes
T5 sequence (A0A286XTF2 1-366): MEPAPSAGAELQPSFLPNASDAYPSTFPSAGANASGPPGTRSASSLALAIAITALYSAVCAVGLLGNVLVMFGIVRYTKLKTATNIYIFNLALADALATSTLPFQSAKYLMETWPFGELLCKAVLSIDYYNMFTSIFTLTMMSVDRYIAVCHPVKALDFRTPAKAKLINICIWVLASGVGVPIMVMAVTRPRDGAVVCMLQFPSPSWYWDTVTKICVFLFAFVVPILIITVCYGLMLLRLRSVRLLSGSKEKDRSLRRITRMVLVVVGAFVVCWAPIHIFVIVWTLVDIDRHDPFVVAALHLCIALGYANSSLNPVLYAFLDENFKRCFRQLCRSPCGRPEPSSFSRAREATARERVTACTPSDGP
As to conditions: guinea pig brain membranes; cited from earlier work.

In data set [12] the test system is respiratory depression. Conditions: rat, even at doses of 800 mg/kg, intraperitoneal; cited from earlier work.
The conditions of data set [13]: animal studies; cited from earlier work.
The mark [14] stands for this setting: morphine 20-100 mg/kg i.p., then compound 23 mg/kg p.o.
Setting [15] is: morphine 20-100 mg/kg i.p., then compound 100 mg/kg p.o.
The mark [16] stands for this setting: no morphine, compound 23 mg/kg p.o. + 10 mg/kg naloxone i.p.
Setting [17] is: no morphine, compound 100 mg/kg p.o. + 10 mg/kg naloxone i.p.
The mark [18] stands for this setting: morphine 20-100 mg/kg i.p. control, no replacement compound.
[19] abbreviates: morphine i.p. + 10 mg/kg naloxone i.p.
Where [20] appears, read: naloxone i.p. group, no morphine.

In general, pKi refers to the Ki on a negative log10 scale, so that one unit is a factor of ten.

Molecules are shown by their SMILES. Some results are limits rather than exact numbers.

T4 sequence (P34969 whole entry): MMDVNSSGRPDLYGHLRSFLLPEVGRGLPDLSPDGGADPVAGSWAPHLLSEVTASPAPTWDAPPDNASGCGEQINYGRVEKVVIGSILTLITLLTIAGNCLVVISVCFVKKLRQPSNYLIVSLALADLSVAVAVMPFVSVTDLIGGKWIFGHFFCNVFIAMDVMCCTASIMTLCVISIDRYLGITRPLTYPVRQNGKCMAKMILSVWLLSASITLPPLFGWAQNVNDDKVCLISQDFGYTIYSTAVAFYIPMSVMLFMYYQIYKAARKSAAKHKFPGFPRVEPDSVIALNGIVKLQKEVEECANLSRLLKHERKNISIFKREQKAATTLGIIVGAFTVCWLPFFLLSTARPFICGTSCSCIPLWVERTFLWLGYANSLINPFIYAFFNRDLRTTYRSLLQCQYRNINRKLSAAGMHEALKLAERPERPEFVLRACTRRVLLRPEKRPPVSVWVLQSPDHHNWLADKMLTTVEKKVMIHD

For the molecule `CC[C@@H]1CN2CC[C@@]3(O)C(=Nc4cccc(OC)c43)[C@@H]2C[C@@H]1/C(=C\OC)C(=O)OC` [7-hydroxymitragynine], the opioid agonist potency entry in data set [1] is recorded as “higher potency than morphine”. Also, the antinociceptive activity entry in data set [2] is recorded as “potent antinociceptive activity”.
With `CCC(=O)C(CC(C)N(C)C)(c1ccccc1)c1ccccc1` (centres unmarked) [Methadone, methadone], in data set [3] (setting [14]), the “Jumping Frequency” value is on record as 0.00 ± 0.00, the “Last Day % Weight Control” value was found to be 100.1 ± 0.8121 %, the “Locomotor Activity” value is listed as 1866 ± 225.9 and the “Paw Tremor Frequency” value was found to be 110.7 ± 8.809. For the same molecule, in data set [3] (setting [14]), the “Teeth Chattering Frequency” value turned out to be 81.20 ± 8.704 and the “Wet Dog Shakes Frequency” value is 5.600 ± 0.9684. In data set [3] (setting [15]), the “Jumping Frequency” value amounted to 1.111 ± 0.7536, the “Last Day % Weight Control” value turned out to be 100.1 ± 1.205 %, the “Locomotor Activity” value is reported as 2512 ± 131.5 and the “Paw Tremor Frequency” value came to 8.444 ± 1.692. In [3] (setting [15]), the “Teeth Chattering Frequency” value came out at 0.00 ± 0.00 and the “Wet Dog Shakes Frequency” value was 0.6667 ± 0.3333. Also, in data set [4] (setting [16]), the “Jumping Frequency” value amounted to 0.00 ± 0.00, the “Last Day % Weight Control” value was determined as 96.64 ± 1.046 %, the “Locomotor Activity” value is 2595 ± 288.4 and the “Paw Tremor Frequency” value was 6.400 ± 1.462. Further, in data set [4] (setting [16]), the “Teeth Chattering Frequency” value is 0.00 ± 0.00 and the “Wet Dog Shakes Frequency” value is 2.000 ± 0.5164. Also, in data set [4] (setting [17]), the “Jumping Frequency” value came out at 0.00 ± 0.00, the “Last Day % Weight Control” value is listed as 98.30 ± 0.6976 %, the “Paw Tremor Frequency” value came out at 5.000 ± 1.549 and the “Teeth Chattering Frequency” value came out at 0.00 ± 0.00. In addition, in data set [4] (setting [17]), the “Wet Dog Shakes Frequency” value is given as 1.900 ± 0.5859.
As for `CN1CC[C@]23c4c5ccc(O)c4O[C@H]2[C@@H](O)C=C[C@H]3[C@H]1C5` [Morphine, morphine], in [3] (setting [18]), the “Jumping Frequency” value was 21.6 ± 4.378, the “Last Day % Weight Control” value was determined as 89.64 ± 0.6012 %, the “Locomotor Activity” value was found to be 1870 ± 114.2 and the “Paw Tremor Frequency” value turned out to be 156.2 ± 7.124. Also, in data set [3] (setting [18]), the “Teeth Chattering Frequency” value is reported as 76.10 ± 6.572 and the “Wet Dog Shakes Frequency” value came out at 9.433 ± 1.334. Besides, in data set [4] (setting [19]), the “Jumping Frequency” value is 21.6 ± 4.378, the “Last Day % Weight Control” value worked out at 89.64 ± 0.6012 %, the “Locomotor Activity” value was determined as 1870 ± 114.2 and the “Paw Tremor Frequency” value stood at 156.2 ± 7.124. For the same molecule, in data set [4] (setting [19]), the “Teeth Chattering Frequency” value stood at 76.10 ± 6.572 and the “Wet Dog Shakes Frequency” value turned out to be 9.433 ± 1.334.
Regarding `C=CCN1CC[C@]23c4c5ccc(O)c4O[C@H]2C(=O)CC[C@@]3(O)[C@H]1C5` [Naloxone, naloxone], in data set [4] (setting [20]), the “Jumping Frequency” value was 1.800 ± 0.9978, the “Last Day % Weight Control” value came out at 99.94 ± 1.225 %, the “Locomotor Activity” value came to 3291 ± 145.3 and the “Paw Tremor Frequency” value amounted to 3.800 ± 0.9978. Further, in [4] (setting [20]), the “Teeth Chattering Frequency” value came out at 0.00 ± 0.00 and the “Wet Dog Shakes Frequency” value worked out at 0.6000 ± 0.3399.
For the molecule `CC[C@@H]1CN2CC[C@]3(Nc4cccc(OC)c4C3=O)[C@@H]2C[C@@H]1/C(=C\OC)C(=O)OC` [mitragynine pseudoindoxyl], the opioid agonist potency result in [1] is given as “higher potency than morphine”.
Take `CC[C@@H]1CN2CCc3c([nH]c4cccc(OC)c34)[C@@H]2C[C@@H]1/C(=C\OC)C(=O)OC` [mitragynine]: the “Percentage inhibition of radioligand binding” value (“Percentage inhibition” below) in data set [5] is “Adenosine A2A: 65.66”. Besides, the “Percentage inhibition” value in data set [6] is given as “Adrenergic (Alpha 2): 61.92”. In data set [7], the “Percentage inhibition” value is given as “Dopamine D2: 54.22”. Besides, in data set [8], the “Percentage inhibition” value is “Serotonin, 5HT2C: 58.77”. The “Percentage inhibition” value in data set [9] is given as “Serotonin, 5HT7: 64.41”. Moreover, in data set [3] (mice, p.o. for six days after morphine, in a similar manner as methadone), the “naloxone-precipitated morphine withdrawal symptoms” value is listed as “reduced”. Moreover, in data set [3] (setting [14]), the “Jumping Frequency” value is recorded as 0.00 ± 0.00, the “Last Day % Weight Control” value worked out at 101.3 ± 0.8619 %, the “Locomotor Activity” value turned out to be 2485 ± 119.1 and the “Paw Tremor Frequency” value worked out at 3.200 ± 0.7424. Moreover, in [3] (setting [14]), the “Teeth Chattering Frequency” value came to 0.00 ± 0.00 and the “Wet Dog Shakes Frequency” value is recorded as 0.6000 ± 0.2667. Further, in [4] (setting [16]), the “Jumping Frequency” value is 0.00 ± 0.00, the “Last Day % Weight Control” value turned out to be 98.85 ± 0.8938 %, the “Locomotor Activity” value worked out at 3010 ± 108.1 and the “Paw Tremor Frequency” value is reported as 1.800 ± 0.6464. In [4] (setting [16]), the “Teeth Chattering Frequency” value is listed as 0.00 ± 0.00 and the “Wet Dog Shakes Frequency” value amounted to 0.00 ± 0.00. The “sample stability, variation” value in data set [10] is at most 15%. The pKi in data set [11] was 7.22±0.21. Besides, the respiratory depression entry in data set [12] is recorded as “failed to identify respiratory depression”. In data set [13], the “analgesic and antitussive properties” value is given as “comparable to codeine”; the opioid withdrawal syndrome entry is “suppressed”; the “respiratory depression compared with codeine” value was “much less respiratory depression”.

These data come from patent publication US20100209542A1, “Methods For Treating Withdrawal From Addictive Compounds” (priority 2008, published 2010).
